Assay [1] has as its system mock-transfected CHO cells. In words: cAMP and IP release in mock-transfected CHO cells. In kind it is cell-based, Chinese hamster. Here is the method:
CHO cells are grown on 150 mm plates in HAM's F-12 medium with supplements (10% bovine calf serum, 4 mM L-glutamine and 100 units/ml penicillin/100 μg/ml streptomycin) at 37° C., 5% CO2. Stock plates of CHO cells are trypsinized and split 1:8 every 3–4 days.
(§1) A typical protocol for the electroporation method as applied to Cos-7 cells is described as follows. Cells to be used for transfection are split 24 hours prior to the transfection to provide flasks which are subconfluent at the time of transfection. The cells are harvested by trypsinization resuspended in their growth media and counted. 5×10^6 cells are suspended in 300 μl of DMEM and placed into an electroporation cuvette. 8 μg of receptor DNA plus 8 μg of any additional DNA needed (e.g. G protein expression vector, reporter construct, antibiotic resistance marker, mock vector, etc.) is added to the cell suspension, the cuvette is placed into a BioRad Gene Pulser and subjected to an electrical pulse (Gene Pulser settings: 0.25 kV voltage, 950 μF capacitance). […]
(§2) The receptor-mediated stimulation or inhibition of cyclic AMP (cAMP) formation may be assayed in cells expressing the receptors. […] The plates are stored at 4° C. for 15 min, and the cAMP content in the stopping solution is measured by radioimmunoassay. Radioactivity may be quantified using a gamma counter equipped with data reduction software. […]

Another assay addresses T1, SNORF25 (Homo sapiens, UniProt Q8TDV5).
T1 sequence (Q8TDV5 1-335): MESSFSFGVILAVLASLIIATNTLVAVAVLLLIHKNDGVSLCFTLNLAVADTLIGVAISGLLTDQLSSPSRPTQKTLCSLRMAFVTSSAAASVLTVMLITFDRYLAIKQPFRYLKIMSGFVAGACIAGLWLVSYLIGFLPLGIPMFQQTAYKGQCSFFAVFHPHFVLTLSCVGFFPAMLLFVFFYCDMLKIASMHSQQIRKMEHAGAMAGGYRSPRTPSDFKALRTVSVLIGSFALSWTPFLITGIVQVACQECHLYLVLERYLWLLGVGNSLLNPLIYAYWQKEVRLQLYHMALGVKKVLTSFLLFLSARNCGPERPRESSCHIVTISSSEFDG
As to the kind of experiment: CFTR Cl- currents in Xenopus oocytes co-injected with SNORF25 and CFTR mRNA. The arrangement: from linearized plasmids or PCR products containing the complete coding region of the genes; expressed in transfected cells; host or cells: Xenopus laevis oocytes injected with SNORF25 mRNA (with or without CFTR mRNA). In kind it is cell-based. Here is the method: Oocytes are harvested from Xenopus laevis and injected with mRNA transcripts as previously described (Quick and Lester, 1994; Smith et al., 1997). The test receptor of this invention and Gα subunit RNA transcripts are synthesized using the T7 polymerase (“Message Machine,” Ambion) from linearized plasmids or PCR products containing the complete coding region of the genes. Oocytes are injected with 10 ng synthetic receptor RNA and incubated for 3–8 days at 17 degrees. Three to eight hours prior to recording, oocytes are injected with 500 pg promiscuous Gα subunits mRNA in order to observe coupling to Ca^++ activated Cl^− currents.
Each of the compounds was tested at 10 μM. Oocytes expressing SNORF25 generated inward Cl^− currents, consistent with CFTR activation, in response to all four of the ligands.
The activity of SNORF25 was therefore tested in oocytes co-injected with mRNA encoding SNORF25 and mRNA encoding CFTR. In 17 out of 39 of these oocytes an inward Cl^− current (105±20 nA) was measured in response to the application of 10 μM all-trans-retinoic acid (See FIGS. 9A–9C and 10).

Assay [2] has as its system control (CFTR alone) oocytes. As to the kind of experiment: CFTR Cl- currents in control oocytes injected with only CFTR mRNA. Conditions: 10 μM. In kind it is cell-based, Xenopus laevis.
In another assay the target is T2, dopamine D5 receptor (Homo sapiens, UniProt P21918).
T2 construct: expressed in transfected cells; host or cells: Cos-7 cells
T2 sequence (P21918 whole entry): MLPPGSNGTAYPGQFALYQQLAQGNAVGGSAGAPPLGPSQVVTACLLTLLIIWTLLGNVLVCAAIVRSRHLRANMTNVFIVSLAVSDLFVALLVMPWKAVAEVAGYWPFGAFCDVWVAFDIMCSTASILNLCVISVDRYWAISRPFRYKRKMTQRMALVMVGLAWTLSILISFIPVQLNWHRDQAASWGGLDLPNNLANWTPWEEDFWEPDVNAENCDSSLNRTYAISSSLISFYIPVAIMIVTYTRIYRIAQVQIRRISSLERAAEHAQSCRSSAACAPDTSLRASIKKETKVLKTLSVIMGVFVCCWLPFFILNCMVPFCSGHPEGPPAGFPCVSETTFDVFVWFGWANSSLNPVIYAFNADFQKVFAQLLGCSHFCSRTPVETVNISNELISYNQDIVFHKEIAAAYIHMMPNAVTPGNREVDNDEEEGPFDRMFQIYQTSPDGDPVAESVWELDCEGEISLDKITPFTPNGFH
As to the kind of experiment: cAMP in Cos-7 cells transfected with dopamine D5 receptor. In kind it is cell-based. To be noted: 10 μM, dopamine D5 (FIG. 7). Here is the method:
as §1, with “capacitance). Following the pulse, 800 μl of complete DMEM is added to each cuvette and the suspension transferred to a sterile tube. Complete medium is added to each tube to bring the final cell concentration to 1×10^5 cells/100 μl.” for “capacitance).”
as §2

Another assay addresses T3, serotonin 5-HT6 receptor (Homo sapiens, UniProt P50406).
T3 construct: expressed in transfected cells; host or cells: Cos-7 cells
In words: cAMP in Cos-7 cells transfected with serotonin 5-HT6 receptor. In kind it is cell-based. Conditions: 10 μM, serotonin 5-HT6 (FIG. 7). Here is the method: as §1, with “capacitance). Following the pulse, 800 μl of complete DMEM is added to each cuvette and the suspension transferred to a sterile tube. Complete medium is added to each tube to bring the final cell concentration to 1×10^5 cells/100 μl.” for “capacitance).”
as §2

T3 sequence (P50406 whole entry): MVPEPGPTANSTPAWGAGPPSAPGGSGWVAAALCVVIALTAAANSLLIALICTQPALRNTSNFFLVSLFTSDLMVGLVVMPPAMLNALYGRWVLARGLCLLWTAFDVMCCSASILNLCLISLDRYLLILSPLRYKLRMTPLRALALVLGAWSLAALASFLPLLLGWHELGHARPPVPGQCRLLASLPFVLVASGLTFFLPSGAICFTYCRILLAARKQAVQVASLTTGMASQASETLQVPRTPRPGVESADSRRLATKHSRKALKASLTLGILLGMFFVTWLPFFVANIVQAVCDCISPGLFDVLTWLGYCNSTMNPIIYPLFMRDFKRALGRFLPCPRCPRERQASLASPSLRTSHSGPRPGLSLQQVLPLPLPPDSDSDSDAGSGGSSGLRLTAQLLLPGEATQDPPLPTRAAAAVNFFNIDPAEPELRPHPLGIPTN

`CC1=C(/C=C/C(C)=C/C=C/C(C)=C/C(=O)O)C(C)(C)CCC1` [ATRA, all-trans-retinoic acid]: the “cAMP and IP release in mock-transfected CHO cells” value in assay [1] was “without affecting these parameters”. For the same molecule, at SNORF25 (10 μM, oocytes with SNORF25 and CFTR mRNA), the “inward Cl- current amplitude” value was 105±20 nA. At SNORF25 (SNORF25-expressing oocytes), the “delay for activation of CFTR” value is around 10 s. The “current response in oocytes injected with only CFTR mRNA” value in assay [2] is given as “no such current was observed”. Besides, the cAMP response result at dopamine D5 receptor and at serotonin 5-HT6 receptor was “no response” each time.

The values are drawn from US7416848B2, “DNA encoding SNORF25 receptor” (H. Lundbeck A/S, priority 1999, dated 2008).
